Patent publication US8598085B2, “2-(2-fluoro-substituted phenyl)-6-amino-5-chloro-4-pyrimidinecarboxylates and their use as herbicides” (Dow AgroSciences LLC, priority 2007, dated 2013)

Assays:
[1] = test system: ABUTH—Velvetleaf (Abutilon theophrasti); assay: General postemergence herbicidal activity, velvetleaf; type: in vivo; details: post-emergence, 336 h, post-emergent, rate 140 g ai/ha, visual score after 14 days (0 no injury, 100 complete kill), read-out: % Growth Reduction ABUTH
Procedure: (§1) Seeds or nutlets of the desired test plant species were planted in Sun Gro MetroMix® 306 planting mixture, which typically has a pH of 6.0 to 6.8 and an organic matter content of about 30 percent, in plastic pots with a surface area of 64 square centimeters. When required to ensure good germination and healthy plants, a fungicide treatment and/or other chemical or physical treatment was applied. The plants were grown for 7-21 days in a greenhouse with an approximate 15 hour photoperiod which was maintained at about 23-29° C. during the day and 22-28° C. during the night. Nutrients and water were added on a regular basis and supplemental lighting was provided with overhead metal halide 1000-Watt lamps as necessary. The plants were employed for testing when they reached the first or second true leaf stage.
(§2) A weighed amount, determined by the highest rate to be tested, of each test compound was placed in a 25 mL glass vial and was dissolved in 4 mL of a 97:3 v/v (volume/volume) mixture of acetone and dimethyl sulfoxide (DMSO) to obtain concentrated stock solutions. […] The concentrated stock solutions obtained were diluted with 20 mL of an aqueous mixture containing acetone, water, isopropyl alcohol, DMSO, Atplus 411F crop oil concentrate, and Triton X-155 surfactant in a 48.5:39:10:1.5:1.0:0.02 v/v ratio to obtain spray solutions containing the highest application rates. Additional application rates were obtained by serial dilution of 12 mL of the high rate solution into a solution containing 2 mL of 97:3 v/v (volume/volume) mixture of acetone and DMSO and 10 mL of an aqueous mixture containing acetone, water, isopropyl alcohol, DMSO, Atplus 411F crop oil concentrate, and Triton X-155 surfactant in a 48.5:39:10:1.5:1.0:0.02 v/v ratio to obtain ½X, ¼X, ⅛X and 1/16X rates of the high rate. Compound requirements are based upon a 12 mL application volume at a rate of 187 L/ha. Formulated compounds were applied to the plant material with an overhead Mandel track sprayer equipped with 8002E nozzles calibrated to deliver 187 L/ha over an application area of 0.503 square meters at a spray height of 18 inches […] above the average plant canopy height. Control plants were sprayed in the same manner with the solvent blank.
(§3) The treated plants and control plants were placed in a greenhouse as described above and watered by sub-irrigation to prevent wash-off of the test compounds. After 14 days, the condition of the test plants as compared with that of the untreated plants was determined visually and scored on a scale of 0 to 100 percent where 0 corresponds to no injury and 100 corresponds to complete kill.

[2] = test system: POLCO—Wild buckwheat (Polygonum convolvulus); assay: General postemergence herbicidal activity, wild buckwheat; type: in vivo; details: Fallopia convolvulus, post-emergence, 336 h; post-emergent, rate 140 g ai/ha, visual score after 14 days (0 no injury, 100 complete kill); read-out: % Growth Reduction POLCO
Procedure: as §1, §2, §3

[3] = test system: CIRAR—Canada thistle (Cirsium arvense); assay: General postemergence herbicidal activity, Canada thistle; type: in vivo; details: post-emergence, 336 h, post-emergent, rate 140 g ai/ha, visual score after 14 days (0 no injury, 100 complete kill), read-out: % Growth Reduction CIRAR
Procedure: as §1, §2, §3

[4] = test system: ECHCG—Barnyardgrass (Echinochloa crus-galli); assay: General postemergence herbicidal activity, barnyardgrass; type: in vivo; details: post-emergence, 336 h, post-emergent, rate 140 g ai/ha, visual score after 14 days (0 no injury, 100 complete kill), read-out: % Growth Reduction ECHCG
Procedure: as §1, §2, §3

[5] = test system: ZEAMX—Corn (Zea mays); assay: General preemergence herbicidal activity, corn; type: in vivo; details: pre-emergent, rate 140 g ai/ha, visual score after 20-22 days (0 no injury, 100 complete kill or no emergence), read-out: % Growth Inhibition ZEAMX
Text: (§4) Seeds of the desired test plant species were planted in a soil matrix prepared by mixing a loam soil (43 percent silt, 19 percent clay, and 38 percent sand, with a pH of about 8.1 and an organic matter content of about 1.5 percent) and sand in a 70 to 30 ratio. The soil matrix was contained in plastic pots with a surface area of 113 square centimeters. When required to ensure good germination and healthy plants, a fungicide treatment and/or other chemical or physical treatment was applied. A weighed amount, determined by the highest rate to be tested, of each test compound was placed in a 25 mL glass vial and was dissolved in 6 mL of a 97:3 v/v (volume/volume) mixture of acetone and DMSO to obtain concentrated stock solutions. […] The stock solutions obtained were diluted with 18 mL of a 0.1% v/v aqueous solution of Tween® 20 surfactant to obtain spray solutions containing the highest application rate. Additional application rates were obtained by serial dilution of 12 mL of the high rate solution into a solution containing 3 mL of 97:3 v/v mixture of acetone and DMSO and 9 mL of the 0.1% v/v aqueous solution of Tween® 20 surfactant to obtain 1⁄2X, 1⁄4X, 1⁄8X and 1/16X rates of the high rate. Compound requirements are based upon a 12 mL application volume at a rate of 187 L/ha. Formulated compounds were applied to the plant material with an overhead Mandel track sprayer equipped with […] nozzles calibrated to deliver 187 L/ha over an application area of 0.503 square meters at a spray height of 18 inches (43 cm) above the soil surface. Control plants were sprayed in the same manner with the solvent blank. The treated pots and control pots were placed in a greenhouse maintained with an approximate 15 hour photoperiod and temperatures of about 23-29° C. during the day and 22-28° C. during the night. Nutrients and water were added on a regular basis and supplemental lighting was provided with overhead metal halide 1000-Watt lamps as necessary. The water was added by top-irrigation. After 20-22 days, the condition of the test plants that germinated and grew as compared with that of the untreated plants that emerged and grew was determined visually and scored on a scale of 0 to 100 percent where 0 corresponds to no injury and 100 corresponds to complete kill or no emergence.

[6] = test system: CHEAL—Common lambsquarters (Chenopodium album); assay: General preemergence herbicidal activity, common lambsquarters; type: in vivo; details: pre-emergent, rate 140 g ai/ha, visual score after 20-22 days (0 no injury, 100 complete kill or no emergence), read-out: % Growth Inhibition CHEAL
Text: as §4

[7] = test system: ABUTH—Velvetleaf (Abutilon theophrasti); assay: General preemergence herbicidal activity, velvetleaf; type: in vivo; details: pre-emergent, rate 140 g ai/ha, visual score after 20-22 days (0 no injury, 100 complete kill or no emergence), read-out: % Growth Inhibition ABUTH
Text: as §4

[8] = test system: HELAN—Common sunflower (Helianthus annuus); assay: General preemergence herbicidal activity, common sunflower; type: in vivo; details: pre-emergent, rate 140 g ai/ha, visual score after 20-22 days (0 no injury, 100 complete kill or no emergence), read-out: % Growth Inhibition HELAN
Text: as §4

[9] = test system: SORVU—Common sorghum (Sorghum vulgare); assay: General preemergence herbicidal activity, common sorghum; type: in vivo; details: pre-emergent, rate 140 g ai/ha, visual score after 20-22 days (0 no injury, 100 complete kill or no emergence), read-out: % Growth Inhibition SORVU
Text: as §4

Row | SMILES | pest or weed control at 140 g/ha [1] [%] | pest or weed control at 140 g/ha [2] [%] | pest or weed control at 140 g/ha [3] [%] | pest or weed control at 140 g/ha [4] [%] | melting point [°C] | inhibition at 140 g/ha [5] [%] | inhibition at 140 g/ha [6] [%] | inhibition at 140 g/ha [7] [%] | inhibition at 140 g/ha [8] [%] | inhibition at 140 g/ha [9] [%]
1 | COC(=O)c1nc(-c2cc(F)c(C)cc2F)nc(N)c1Cl [Compound 8, 6-Amino-5-chloro-2-(2,5-difluoro-4-methylphenyl)pyrimidine-4-carboxylic acid methyl ester] | 95 | 60 | 45 | 0 | – | – | – | – | – | –
2 | COC(=O)c1nc(-c2ccc(Cl)cc2F)nc(N)c1Cl [Compound 1, 6-Amino-5-chloro-2-(4-chloro-2-fluorophenyl)pyrimidine-4-carboxylic acid methyl ester] | 100 | 95 | 100 | 90 | 194 to 196 | – | – | – | – | –
3 | Nc1nc(-c2ccc(C(F)(F)F)c(F)c2F)nc(C(=O)O)c1Cl [Compound 16, 6-Amino-5-chloro-2-(2,3-difluoro-4-trifluoromethylphenyl)pyrimidine-4-carboxylic acid] | 65 | 95 | 90 | 90 | – | 30 | 100 | 60 | 65 | 60
4 | COC(=O)c1nc(-c2cc(F)c(Cl)cc2F)nc(N)c1Cl [Compound 20, 6-Amino-5-chloro-2-(4-chloro-2,5-difluorophenyl)-pyrimidine-4-carboxylic acid methyl ester] | 99 | 100 | 95 | 95 | – | – | – | – | – | –
5 | COC(=O)c1nc(-c2ccc(Cl)c(F)c2F)nc(N)c1Cl [Compound 2, 6-Amino-5-chloro-2-(4-chloro-2,3-difluorophenyl)pyrimidine-4-carboxylic acid methyl ester] | 100 | 100 | 100 | 95 | 187 to 189 | – | – | – | – | –
6 | COC(=O)c1nc(-c2ccc(C(F)(F)F)c(F)c2F)nc(N)c1Cl [Compound 6, 6-Amino-5-chloro-2-(2,3-difluoro-4-trifluoromethylphenyl)pyrimidine-4-carboxylic acid methyl ester] | 90 | 95 | 80 | 25 | – | – | – | – | – | –
7 | COC(=O)c1nc(-c2ccc(C(F)F)cc2F)nc(N)c1Cl [Compound 9, 6-Amino-5-chloro-2-(4-difluoromethyl-2-fluorophenyl)pyrimidine-4-carboxylic acid methyl ester] | 45 | 35 | 40 | 0 | – | – | – | – | – | –
8 | Cc1ccc(-c2nc(N)c(Cl)c(C(=O)O)n2)c(F)c1 [Compound 13, 6-Amino-5-chloro-2-(2-fluoro-4-methylphenyl)pyrimidine-4-carboxylic acid] | – | – | – | – | – | 10 | 95 | 95 | – | 50
9 | COC(=O)c1nc(-c2ccc(C)c(F)c2F)nc(N)c1Cl [Compound 4, 6-Amino-5-chloro-2-(2,3-difluoro-4-methylphenyl)pyrimidine-4-carboxylic acid methyl ester] | 99 | 80 | 60 | 90 | – | – | – | – | – | –
10 | COC(=O)c1nc(-c2cc(Cl)c(Cl)cc2F)nc(N)c1Cl [Compound 10, 6-Amino-5-chloro-2-(4,5-dichloro-2-fluorophenyl)pyrimidine-4-carboxylic acid methyl ester] | 90 | 100 | 95 | – | – | – | – | – | – | –
11 | CCOC(=O)c1nc(-c2ccc(Cl)cc2F)nc(N)c1Cl [Compound 19, 6-Amino-5-chloro-2-(4-chloro-2-fluorophenyl)pyrimidine-4-carboxylic acid ethyl ester] | 99 | 100 | 95 | 80 | 131 to 132 | – | – | – | – | –
12 | Cc1cc(F)c(-c2nc(N)c(Cl)c(C(=O)O)n2)cc1F [Compound 18, 6-Amino-5-chloro-2-(2,5-difluoro-4-methylphenyl)pyrimidine-4-carboxylic acid] | 100 | 40 | 100 | 75 | – | – | – | – | – | –
13 | Nc1nc(-c2cc(Cl)c(Cl)cc2F)nc(C(=O)O)c1Cl [Compound 17, 6-Amino-5-chloro-2-(4,5-dichloro-2-fluorophenyl)pyrimidine-4-carboxylic acid] | 85 | 95 | 90 | – | – | – | – | – | – | –
14 | COC(=O)c1nc(-c2ccc(C(F)(F)F)cc2F)nc(N)c1Cl [Compound 5, 6-Amino-5-chloro-2-(2-fluoro-4-trifluoromethylphenyl)pyrimidine-4-carboxylic acid methyl ester] | 70 | 80 | 85 | 0 | – | – | – | – | – | –
